Reference: US20240310388A1, “DIAGNOSTIC METHODS FOR HIDRADENITIS SUPPURATIVA” (AMGEN INC., priority 2023, published 2024)

Key:
[1] = test system: subjects with moderate to severe hidradenitis suppurativa (Hurley stage II or III); experiment: Phase 2 clinical study (NCT03852472, AURORA): HiSCR, AN count, DF count and IHS4 at Week 12; assay type: in vivo, human; settings: for HiSCR response rate % (n/N): biomarker sample subset of AURORA (n = 68 HS patients), placebo 25
Protocol: The study was a randomized, double-blind, placebo-controlled, three group Phase 2 trial in 435 subjects with moderate to severe hidradenitis suppurativa (Hurley stage II or III). Subjects were randomized 1:1:1 to a treatment of 10 mg avacopan twice daily, 30 mg avacopan twice daily or a placebo twice daily for 12 weeks. Following the 12 weeks double-blind treatment period, subjects on placebo were re-randomized 1:1 to receive 10 mg or 30 mg avacopan twice daily for additional 24 weeks. Subjects treated with avacopan continued to receive the same dose (either 10 mg or 30 mg twice daily) for additional 24 weeks. Subjects were on study treatment for 36 weeks and were followed for 8 weeks for assessment of safety and efficacy. The primary efficacy analysis was at 12 weeks. The primary efficacy endpoint assessed by the proportion of subjects achieving Hidradenitis Suppurativa Clinical Response (HiSCR) at Week 12. • At least 18 years of age • Clinical diagnosis of HS (Hurley Stage II or III), confirmed by a dermatologist, for at least 6 months prior to Screening • HS lesions are present in at least 2 distinct anatomic areas • Inadequate or loss of response to a systemic course of antibiotics typically of at least 90 days • Must have at least 5 inflammatory nodules or abscesses at screening • Use adequate birth control for subject and partners of child bearing potential • Willing and able to give written Informed Consent • Pregnant or breast-feeding • Any other skin disease that may interfere with the assessment of HS • Rapidly progressive, expanding HS within 30 days prior to screening • More than 20 draining fistulae at screening • Any anti-TNF-α treatment for HS or for other conditions prior to Day 1 visit will be prohibited. Exception: Subjects who were previously treated with an anti-TNF-α drug and discontinued treatment >12 weeks prior to Day 1 visit are allowed for enrollment • Systemic antibiotics are generally excluded • Topical antibiotics use within 14 days prior to Day 1 is excluded • Have started a topical prescription medicine for HS within 14 days prior to screening • A systemic medicine for HS, including biologics and other systemic therapies • Have received within 14 days prior to Day 1 visit or is expected to require oral or transdermal opioid analgesics (except for tramadol) for any reason The proportion of subjects achieving HiSCR at Week 12 is calculated as those subjects having at least a 50% reduction from baseline in abscess and inflammatory nodule (AN) count, with no increase in abscess count and no increase in draining fistula count number at Week 12 divided by the total number of subjects with non-missing value in each treatment group. p-values are obtained from a Cochran-Mantel-Haenszel (CMH) test stratified by stratification factors Hurley Stage (Stage II vs. III), and anti-TNF drug use (Treatment naïve vs. Previous treatment). Plasma samples were collected at baseline prior to the start of treatment from 68 enrolled HS patients in phase II AURORA study (NCT03852472) and from 20 independent age and gender matched healthy controls.

[2] = test system: HS patients; experiment: Phase 2 clinical study (NCT03852472): safety and tolerability; assay type: in vivo, human
Protocol: The study was a randomized, double-blind, placebo-controlled, three group Phase 2 trial in 435 subjects with moderate to severe hidradenitis suppurativa (Hurley stage II or III). Subjects were randomized 1:1:1 to a treatment of 10 mg avacopan twice daily, 30 mg avacopan twice daily or a placebo twice daily for 12 weeks. Following the 12 weeks double-blind treatment period, subjects on placebo were re-randomized 1:1 to receive 10 mg or 30 mg avacopan twice daily for additional 24 weeks. Subjects treated with avacopan continued to receive the same dose (either 10 mg or 30 mg twice daily) for additional 24 weeks.
Subjects were on study treatment for 36 weeks and were followed for 8 weeks for assessment of safety and efficacy. The primary efficacy analysis was at 12 weeks.

## Cc1ccc(NC(=O)[C@H]2CCCN(C(=O)c3c(C)cccc3F)[C@H]2c2ccc(NC3CCCC3)cc2)cc1C(F)(F)F [avacopan]
[1]; Hurley Stage II, Week 12, avacopan 10 mg BID
  % Difference (avacopan − placebo) in HiSCR: −13.9%
[1]; Hurley Stage II, Week 12, avacopan 10 mg BID, 95% CI (−26.8, −0.2)
  % Adjusted difference (avacopan − placebo) in HiSCR: −13.8%
[1]; Hurley Stage II, Week 12, avacopan 10 mg BID, placebo 35.3, p=0.0473
  HiSCR Responder Rate, n/N: 21.4%
[1]; Hurley Stage II, Week 12, avacopan 10 mg BID, placebo 35.3, p=0.0473, listed as Avacopan
  HiSCR Responder Rate, n/N: 18/84 (21.4) %
[1]; Hurley Stage II, Week 12, avacopan 30 mg BID
  % Difference (avacopan − placebo) in HiSCR: −4.3%
[1]; Hurley Stage II, Week 12, avacopan 30 mg BID, 95% CI (−18.1, 9.6)
  % Adjusted difference (avacopan − placebo) in HiSCR: −4.3%
[1]; Hurley Stage II, Week 12, avacopan 30 mg BID, placebo 35.3, p=0.5469
  HiSCR Responder Rate, n/N: 27/87 (31.0) %
[1]; Hurley Stage III (ITT1), Week 12, avacopan 10 mg BID, placebo 22.2
  HiSCR Responder Rate, n/N: 24.0%
[1]; Hurley Stage III (ITT1), Week 12, avacopan 10 mg BID, placebo 22.2, listed as Avacopan
  HiSCR Responder Rate, n/N: 12/50 (24) %
[1]; Hurley Stage III (ITT1), Week 12, avacopan 30 mg BID, placebo 22.2, p=0.0349 (text)
  HiSCR Responder Rate, n/N: 42.6%
[1]; Hurley Stage III (ITT1), Week 12, avacopan 30 mg BID, placebo 22.2, p=0.0349 (text), listed as Avacopan
  HiSCR Responder Rate, n/N: 20/47 (42.6) %
[1]; Hurley Stage III patients, week 12
  IHS4, AN, draining fistula and abscess count: consistent reduction
[1]; Hurley Stage III, Week 12, avacopan 10 mg BID
  % Difference (avacopan − placebo) in HiSCR: 1.8%
[1]; Hurley Stage III, Week 12, avacopan 10 mg BID, 95% CI (−15.3, 18.3)
  % Adjusted difference (avacopan − placebo) in HiSCR: 1.8%
[1]; Hurley Stage III, Week 12, avacopan 30 mg BID
  % Difference (avacopan − placebo) in HiSCR: 20.3%
[1]; Hurley Stage III, Week 12, avacopan 30 mg BID, 95% CI (1.6, 37.9)
  % Adjusted difference (avacopan − placebo) in HiSCR: 20.8%
[1]; Hurley Stage III, Week 12, avacopan 30 mg BID, placebo 20.7%
  percentage reduction in IHS4 Score: 36.9%
[1]; Hurley Stage III, Week 12, avacopan 30 mg BID, placebo 23.7%
  percentage reduction in AN count: 40.8%
[1]; Hurley Stage III, Week 12, avacopan 30 mg BID, placebo 24.0%
  percentage reduction in DF count: 45.2%
[1]; avacopan 10 mg
  HiSCR response rate % (n/N): 29.2 (7/24) %
[1]; avacopan 30 mg
  HiSCR response rate % (n/N): 54.2 (13/24) %
[1]; pre-specified Hurley Stage III (severe HS) patients at 12 weeks
  improvement in HiSCR vs. placebo: statistically significant dose-dependent improvement
[2]
  safety and tolerability: safe and well tolerated
